“And” between values parts separate entries of the source, which are not always exact repeats. Equal values may be shown once.
What was measured:
[1] = Ulcerogenic activity in fasted albino mouse assessed as average severity of ulcers in gastric mucosa at 10 mg/kg, po for 3 days (reference value: 0); type: toxicity, organism-based; details: in vivo, 72 h, time 3 day
Mus musculus [2] = test: Analgesic activity in albino mouse assessed as forepaw licking/jumping latency time at 10 mg/kg, ip measured after 60 mins by hot plate test (reference value: 3.42 +/- 0.03 sec); type: functional; details: 1 h
Pseudomonas aeruginosa = test: Antibacterial activity against Pseudomonas aeruginosa ATCC 27853 incubated for 18 hrs by agar dilution assay; type: functional
Splenocyte [3] = test: Immunomodulatory activity in Swiss albino mouse splenocytes assessed as cell viability at 10 uM by measuring inhibition of stimulation index incubated for 72 hrs in presence of mitogenic stimulus phytohaemagglutinin by MTT assay relative to indomethacin; type: functional; details: read-out: Activity
[4] = Ulcerogenic activity in fasted albino mouse assessed as ulcer index in gastric mucosa at 10 mg/kg, po for 3 days (reference value: 0); type: toxicity, organism-based; details: in vivo, 72 h, time 3 day
Mus musculus [5] = test: Analgesic activity in albino mouse assessed as protection at 10 mg/kg, ip measured after 60 mins by hot plate test (reference value: 0 %); type: functional; details: 1 h
Peritoneal macrophage [6] = test: Antiinflammatory activity in […] mouse Peritoneal macrophages assessed as reduction in LPS-induced NO production by measuring reduction in stimulation index at 10 uM preincubated for 1 hr followed by LPS stimulation measured after 24 hrs by Griess method (reference value: 27.31 +/- 2.56 uM); type: functional; details: time 25 hrs
Rattus norvegicus [7] = test: Antiinflammatory activity in Wistar rat model of carrageenan-induced paw edema assessed as reduction in thickness of paw edema at 10 mg/kg, ip pretreated for 1 hr followed by carrageenan challenge and measured after 4 hrs (reference value: 1.40 +/-0.10 mm); type: functional; details: time 5 hrs
[8] = Toxicity in albino mouse assessed as induction of toxic symptoms at 50 to 100 mg/kg, ip measured after 24 hrs; type: organism-based; details: in vivo, dose 50-100 mg/kg
Mus musculus [9] = test: Analgesic activity in albino mouse assessed protection against acetic acid-induced abdominal writhing at 10 mg/kg, ip pretreated for 1 hr followed by acetic acid challenge and measured starting 5 mins post acetic acid challenge for 10 mins relative to indomethacin; type: functional; details: time 75 min, 1.25 h
Mus musculus [10] = test: Analgesic activity in albino mouse assessed as forepaw licking/jumping latency time at 10 mg/kg, ip measured after 120 mins by hot plate test (reference value: 2.62 +/- 0.06 sec); type: functional; details: 2 h
Rattus norvegicus [11] = test: Anti-inflammatory activity in Wistar rat assessed as inhibition of carrageenan-induced paw edema at 10 mg/kg, ip pretreated for 1 hr followed by carrageenan challenge and measured after 1 hr relative to control (reference value: 0.00 +/-0.02 %); type: functional; details: time 2 hrs
Mus musculus [12] = test: Analgesic activity in albino mouse assessed as protection at 10 mg/kg, ip measured after 120 mins by hot plate test (reference value: 0 %); type: functional; details: 2 h
Mus musculus [13] = test: Analgesic activity in albino mouse assessed as protection at 10 mg/kg, ip measured after 120 mins by hot plate test relative to indomethacin; type: functional; details: 2 h
Rattus norvegicus [14] = test: Anti-inflammatory activity in Wistar rat assessed as inhibition of carrageenan-induced paw edema at 10 mg/kg, ip pretreated for 1 hr followed by carrageenan challenge and measured after 24 hr relative to control (reference value: 0.00 +/-0.3 %); type: functional; details: time 25 hrs
Mus musculus [15] = test: Analgesic activity in albino mouse assessed as forepaw licking/jumping latency time at 10 mg/kg, ip measured after 30 mins by hot plate test (reference value: 5.02 +/- 0.09 sec); type: functional; details: 0.5 h
Staphylococcus aureus = test: Antibacterial activity against Staphylococcus aureus ATCC 25923 incubated for 18 hrs by agar dilution method; type: functional
Rattus norvegicus [16] = test: Antiinflammatory activity in Wistar rat model of carrageenan-induced paw edema assessed as reduction in thickness of paw edema at 10 mg/kg, ip pretreated for 1 hr followed by carrageenan challenge and measured after 1 hr (reference value: 2.41 +/-0.05 mm); type: functional; details: time 1 hr after carrageenan
[17] = Ulcerogenic activity in fasted albino mouse assessed as incidence of gastric ulceration at 10 mg/kg, po for 3 days (reference value: 0 %); type: toxicity, organism-based; details: in vivo, 72 h, time 3 day
Mus musculus [18] = test: Analgesic activity in albino mouse assessed protection against acetic acid-induced abdominal writhing at 10 mg/kg, ip pretreated for 1 hr followed by acetic acid challenge and measured starting 5 mins post acetic acid challenge for 10 mins relative to control (reference value: 0 %); type: functional; details: time 75 min, 1.25 h
Rattus norvegicus [19] = test: Anti-inflammatory activity in Wistar rat assessed as inhibition of carrageenan-induced paw edema at 10 mg/kg, ip pretreated for 1 hr followed by carrageenan challenge and measured after 4 hr relative to control (reference value: 0.00 +/-0.4 %); type: functional; details: time 5 hrs
Salmonella typhimurium = test: Antibacterial activity against Salmonella typhimurium ATCC 19430 incubated for 18 hrs by agar dilution assay; type: functional, Salmonella enterica subsp. enterica serovar Typhimurium; details: Salmonella enterica
Mus musculus [20] = test: Analgesic activity in albino mouse assessed as protection at 10 mg/kg, ip measured after 30 mins by hot plate test (reference value: 0 %); type: functional; details: 0.5 h
Mus musculus [21] = test: Analgesic activity in albino mouse assessed as forepaw licking/jumping latency time at 10 mg/kg, ip measured after 90 mins by hot plate test (reference value: 2.72 +/- 0.01 sec); type: functional; details: 1.5 h
Peritoneal macrophage [22] = test: Antiinflammatory activity in […] mouse Peritoneal macrophages assessed as inhibition of LPS-induced NO production at 10 uM preincubated for 1 hr followed by LPS stimulation measured after 24 hrs by Griess method relative to control (reference value: 0.0 %); type: functional; design: scale not given: the % may be the effect or the level left; details: time 25 hrs
Rattus norvegicus [23] = test: Antiinflammatory activity in Wistar rat model of carrageenan-induced paw edema assessed as reduction in thickness of paw edema at 10 mg/kg, ip pretreated for 1 hr followed by carrageenan challenge and measured after 24 hrs (reference value: 0.83 +/-0.08 mm); type: functional; details: time 25 hrs
[24] = Ulcerogenic activity in fasted albino mouse assessed as average number of ulcers in gastric mucosa at 10 mg/kg, po for 3 days (reference value: 0); type: toxicity, organism-based; details: in vivo, 72 h, time 3 day
Rattus norvegicus [25] = test: Antiinflammatory activity in Wistar rat model of carrageenan-induced paw edema assessed as reduction in thickness of paw edema at 10 mg/kg, ip pretreated for 1 hr followed by carrageenan challenge and measured after 2 hrs (reference value: 2.06 +/-0.09 mm); type: functional; details: time 3 hrs
Splenocyte [26] = test: Immunomodulatory activity in Swiss albino mouse splenocytes assessed as cell viability at 10 uM by measuring stimulation index incubated for 72 hrs in presence of mitogenic stimulus phytohaemagglutinin by MTT assay (reference value: 1.00 +/- 0.24); type: functional
Streptococcus pyogenes = test: Antibacterial activity against Streptococcus pyogenes ATCC 19615 incubated for 18 hrs by agar dilution method; type: functional
Rattus norvegicus [27] = test: Anti-inflammatory activity in Wistar rat assessed as inhibition of carrageenan-induced paw edema at 10 mg/kg, ip pretreated for 1 hr followed by carrageenan challenge and measured after 2 hr relative to control (reference value: 0.00 +/-0.03 %); type: functional; details: time 3 hrs
Rattus norvegicus [28] = test: Anti-inflammatory activity in Wistar rat assessed as inhibition of carrageenan-induced paw edema at 10 mg/kg, ip pretreated for 1 hr followed by carrageenan challenge and measured after 4 hr relative to indomethacin; type: functional; details: time 5 hrs
Candida albicans = test: Antifungal activity against Candida albicans incubated for 18 to 24 hrs by CLSI method; type: functional; details: time 18-24 hrs
Rattus norvegicus [29] = test: Antiinflammatory activity in Wistar rat model of carrageenan-induced paw edema assessed as reduction in thickness of paw edema at 10 mg/kg, ip pretreated for 1 hr followed by carrageenan challenge and measured after 3 hrs (reference value: 1.79 +/-0.07 mm); type: functional; details: time 4 hrs
Mus musculus [30] = test: Analgesic activity in albino mouse assessed as protection at 10 mg/kg, ip measured after 90 mins by hot plate test (reference value: 0 %); type: functional; details: 1.5 h
Mus musculus [31] = test: Analgesic activity in albino mouse assessed reduction in acetic acid-induced abdominal writhing by measuring writing reflex at 10 mg/kg, ip pretreated for 1 hr followed by acetic acid challenge and measured starting 5 mins post acetic acid challenge for 10 mins (reference value: 42.4 +/- 1.02); type: functional; details: time 75 min, 1.25 h
Rattus norvegicus [32] = test: Anti-inflammatory activity in Wistar rat assessed as inhibition of carrageenan-induced paw edema at 10 mg/kg, ip pretreated for 1 hr followed by carrageenan challenge and measured after 3 hr relative to control (reference value: 0.00 +/-0.1 %); type: functional; details: time 4 hrs

MIC (Pseudomonas aeruginosa): 0.125 µg/mL and 0.139 µM
MIC (Staphylococcus aureus): 0.125 µg/mL and 0.139 µM
MIC (Salmonella typhimurium): 0.125 µg/mL and 0.139 µM
MIC (Streptococcus pyogenes): 0.125 µg/mL and 0.139 µM
MIC (Candida albicans): 2 µg/mL and 2.23 µM
SMILES: COc1cc(/C=C/C(=O)/C=C(O)/C=C/c2ccc(OC(=O)[C@H](CCSC)NC(=O)OCc3ccccc3)c(OC)c2)ccc1OC(=O)[C@H](CCSC)NC(=O)OCc1ccccc1
Activity [1]: 0.33
Time (Mus musculus [2]): 3.94 s
viability at 10 µM (Splenocyte [3]): 99.3%
UI [4]: 3.99
Activity (Mus musculus [5]): 15.2%
Activity (Peritoneal macrophage [6]): 15.17 µM
Activity (Rattus norvegicus [7]): 0.17 mm
Activity [8]: Non-Toxic
Activity (Mus musculus [9]): 9.2%
Time (Mus musculus [10]): 3.18 s
inhibition in vivo at 10 mg/kg (Rattus norvegicus [11]): 76%
Activity (Mus musculus [12]): 21.4%
Activity (Mus musculus [13]): 51%
inhibition in vivo at 10 mg/kg (Rattus norvegicus [14]): 94%
Time (Mus musculus [15]): 5.32 s
Activity (Rattus norvegicus [16]): 0.58 mm
Activity [17]: 3.33%
Activity (Mus musculus [18]): 61.1%
inhibition in vivo at 10 mg/kg (Rattus norvegicus [19]): 88%
Activity (Mus musculus [20]): 6%
Time (Mus musculus [21]): 3.66 s
Activity (Peritoneal macrophage [22]): 44.44%
Activity (Rattus norvegicus [23]): 0.05 mm
Activity [24]: 0.33
Activity (Rattus norvegicus [25]): 0.41 mm
Activity_index (Splenocyte [26]): 1.22
inhibition in vivo at 10 mg/kg (Rattus norvegicus [27]): 80%
inhibition in vivo at 10 mg/kg (Rattus norvegicus [28]): 101%
Activity (Rattus norvegicus [29]): 0.25 mm
Activity (Mus musculus [30]): 34.6%
Activity (Mus musculus [31]): 16.5
inhibition in vivo at 10 mg/kg (Rattus norvegicus [32]): 86%

From ChEMBL document CHEMBL4765295, “Synthesis, pharmacological profile and 2D-QSAR studies of curcumin-amino acid conjugates as potential drug candidates” (Eur J Med Chem, 2020)
